According to patent publication US20080281105A1, “Novel Quinolinium Salts and Derivatives” (IMMUSOL INCORPORATED, priority 2005, published 2008):

Tests used:
[1] = tested on: Panc-1, HCT-116, Pc3M/N, HEPG2, ASPC1, or H460 cells; assay: Reduction of viable cell growth in glucose deprived media (liquid culture, alamarBlue); type: cell-based; settings: for EC50: concentration giving at least 50% reduction of viable cell growth
A549 cancer cells [2] = assay: A549 xenograft model, combination with taxol; type: in vivo, mice; settings: paclitaxel 20 mg/kg once per 4 days i.p.; IMS2155 2 mg/kg daily i.p.; p<0.05 for monotherapies; FIG. 5
Procedure: Combination treatment with taxol and the compound of Example 47 (also designated IMS2155) in the A549 (NCLC) model was tested. Taxol is one of standards of care for lung cancer.
Female athymic nude mice (nu/nu) (4-6 weeks old) were inoculated (s.c.) with 5×10^6 A549 cancer cells in PBS on the flanking site. The animals were divided into four treatment groups when the average tumor size reached 150 mm^3: group 1 (PBS daily i.p. dosing), group 2 (20 mg/kg paclitaxel once per 4 days i.p. dosing), group 3 (2 mg/kg IMS2155 daily i.p. dosing) and group 4 (20 mg/kg paclitaxel once per 4 days i.p. dosing and 2 mg/kg IMS2155 daily i.p. dosing). The tumor size and body weight was measured twice per week. Tumor volume was calculated using the formula TV=length×width×width/2.
It is noteworthy that IMS2155 worked almost as well as Taxol at the MTD dose (20 mg/kg for this strain of mice).

PC3 prostate cells = assay: PC3 medium-staged prostate xenograft model, combination therapy; type: in vivo, mice; settings: Example 1 P.O. daily, doxorubicin or paclitaxel i.p.; tumors around 100 mm^3 at start; FIG. 3 and 4
Procedure: The anti-tumor activity of compounds of the invention in combination with at least one additional chemotherapeutic agent was also tested in a nude mice xenograft model.
(§1) A. Female athymic nude (nu/nu) mice were inoculated with PC3 prostate cells. When tumor volumes reached around 100 mm^3, the animals were divided into four groups with average size of tumors similar among the four groups. The first group was dosed with vehicle (as control), the second group with the compound of Example 1 (P.O. daily), the third with doxorubicin (i.p.) and the fourth with the combination (i.p. Dox/p.o. compound of Example 1).
as §1, with “B.” for “A.”, “paclitaxel (taxol)” for “doxorubicin”, “(ip. taxol/p.o.” for “(i.p. Dox/p.o.”

Lewis lung cancer cells [3] = assay: Mouse Lewis lung cancer (LLC) xenograft model; type: in vivo, mice; settings: 2 mg/kg intraperitoneal, 6 times per week; day 15; p<0.05; FIG. 6
Procedure: Using the mouse Lewis lung cancer (LLC) xenograft model, female C57BL mice (4-6 weeks old) were inoculated (s.c.) with 5×10^5 Lewis lung cancer cells in PBS on the flanking site. Animals were randomly divided into treatment and control groups (n=8) based on tumor size when average tumor size reached 100 mm^3. Animals in the treatment group received the compound of Example 36 (also designated IMS2143) or the compound of Example 47 daily at 2 mg/kg via intraperitoneal dosing, 6 times per week respectively. The control group was injected with 0.9% NaCl. Tumor size and body weight were measured twice per week. Tumor volume was calculated using the formula TV=length×width×width/2.

Lewis lung cancer cells [4] = assay: Mouse LLC model, combination with 2DG; type: in vivo, mice; settings: Example 36 2 mg/kg, 2DG 300 mg/kg, i.p. 6 times per week; p<0.05; FIG. 8
Procedure: More specifically, female C57BL mice (4-6 weeks old) were inoculated (s.c.) with 5×10^5 Lewis lung cancer cells in PBS on the flanking site. Animals were randomly divided into treatment and control groups (n=8) based on tumor size when average tumor size reached 100 mm^3. Animals in the treatment groups received the compound of Example 36 daily at 2 mg/kg and 2DG at 300 mg/kg via intraperitoneal dosing, 6 times per week respectively. Tumor size and body weight were measured twice per week. Tumor volume was calculated using the formula TV=length×width×width/2.

A549 cancer cells [5] = assay: A549 NSCL xenograft model, combination with 2DG; type: in vivo, mice; settings: 2DG 300 mg/kg, Example 36 2 mg/kg, i.p. daily (6 times per week); Example 36 alone p<0.05 at day 24 and 27; combination p<0.05 at day 13-27; FIG. 7
Text: Because the compounds of the invention may be more toxic to cancer cells deprived of glucose or treated with 2DG in vitro, the combination of 2DG with such compounds should have increased anti-tumor efficacy in vivo as compared with either agent alone. Accordingly, the effect of a combination therapy of the compound of Example 36 and 2DG using A549 NSCL xenograft model was examined.
Female athymic nude mice (nu/nu) (4-6 weeks old) were inoculated (s.c.) with 5×10^6 A549 cancer cells in PBS on the flanking site. After the tumors reached an average size ˜100 mm^3, the animals were divided into four treatment groups—0.9% NaCl (control), 2DG at 300 mg/kg, the compound of Example 36 at 2 mg/kg, and a combination of 2DG (300 mg/kg) and the compound of Example 36 (2 mg/kg). All the treatments were delivered by intraperitoneal injection daily (6 times per week). Tumor size and body weight were measured twice per week. Tumor volume was calculated using the formula TV=length×width×width/2.

transformed cell growth = settings: reported in the literature; cited from earlier work
[6] = tested on: eukaryotic translation system; settings: reported by Malina; cited from earlier work
H460 NSCL cells = assay: Non-small cell lung cancer (NSCL) xenograft early stage model in nude mice; type: in vivo
Procedure: The anti-tumor activity of the compound of Example 56 was tested in a nude mice xenograft early stage model. Female athymic nude (nu/nu) mice were inoculated with H460 NSCL cells and divided into two groups. The first group was dosed with vehicle (control), and the second group was dosed i. p. with the compound of Example 56 on a daily basis (6 times/week).

SMILES	EC50 [1]	other results
CN(C)c1ccc2c(ccc(/C=C/c3cccc(-c4cccs4)n3)[n+]2C)c1 [Example 31]	1000 nM	
Cc1c(/C=C/c2ccc3cc(N(C)C)ccc3[n+]2C)cnn1-c1ccccc1 [Example 48]	> 1000 nM	
CN(C)c1ccc2c(ccc(/C=C/c3cc(C(=O)c4ccc(F)cc4)cn3C)[n+]2C)c1.O=S(=O)([O-])C(F)(F)F [Example 52]	> 1000 nM	reduction of viable cell growth ([1]; at the concentration stated in Table 3): inactive
CCCCc1nc(/C=C/c2ccc3cc(N(C)C)ccc3[n+]2C)c(Cl)[nH]1 [Example 39]	> 1000 nM	
CC(=O)O[C@H]1C(=O)[C@@]2(C)[C@H]([C@H](OC(=O)c3ccccc3)[C@]3(O)C[C@H](OC(=O)[C@H](O)[C@@H](NC(=O)c4ccccc4)c4ccccc4)C(C)=C1C3(C)C)[C@]1(OC(C)=O)CO[C@@H]1C[C@@H]2O [Taxol, paclitaxel, reference compound]		A549 tumor size (A549 cancer cells [2]): significant reduction in tumor size; growth of PC3 medium-staged xenograft tumors (PC3 prostate cells): reduced tumor size significantly
Cc1cc(/C=C/c2ccc3cc(N4CCCCC4)ccc3[n+]2C)c(C)n1-c1ccccc1 [Example 29]	1000 nM	
Cc1cc(/C=C/c2ccc3cc(N4CCOCC4)ccc3[n+]2C)c(C)n1-c1ccccc1 [Example 26]	1000 nM	
CC[n+]1c(C=Cc2ccc(N(C)C)cc2)ccc2ccccc21 [quinaldine red]		transformed cell growth (transformed cell growth): inhibitor of transformed cell growth
CN(C)c1ccc2c(ccc(/C=C/c3coc4ccccc4c3=O)[n+]2C)c1 [Example 40]	1000 nM	
CN(C)c1ccc2c(ccc(/C=C/c3ccc(-c4cc(C(F)(F)F)nn4C)s3)[n+]2C)c1 [Example 37]	1000 nM	
CN(C)c1ccc2c(ccc(/C=C/c3cccc(Oc4ccccc4)c3)[n+]2C)c1 [Example 34]	1000 nM	
Cc1cc(C=Cc2ccc3cc(OC(N)=O)ccc3[n+]2C)c(O)c2ncccc12 [NSC 86372, 6-(aminocarbonyloxy)-2-(2-(8-hydroxy-5-methylquinolin-7-yl)vinyl)-1-methylquinolinium]		protein synthesis [6]: inhibited protein synthesis
CCCCn1c(C)c(C=O)c(/C=C/c2ccc3cc(N4CCOCC4)ccc3[n+]2C)c1C [Example 27]	> 1000 nM	
CN(C)c1ccc2c(ccc(/C=C/c3ccc4oc(C(=O)c5ccc(Cl)cc5)cc4c3)[n+]2C)c1 [Example 42]	1000 nM	
O=CC[C@@H](O)[C@H](O)[C@H](O)CO [Example 2DG, 2-deoxyglucose, reference compound]		A549 tumor growth (A549 cancer cells [5]): no response
CCCCn1c(C)c(C=O)c(/C=C/c2ccc3cc(N(C)C)ccc3[n+]2C)c1C.CS(=O)(=O)[O-] [Example 56]	< 1000 nM	Result: Tumor reduction (H460 NSCL cells; NSCL, H460 xenograft, I.p.): Tumor reduction (41%); H460 tumor size as compared to control (H460 NSCL cells; dosed i.p. daily (6 times/week), p<0.05, FIG. 2): significant reduction; toxicity (H460 NSCL cells; nude mice, H460 xenograft, i.p. daily (6 times/week)): no apparent toxicity

More lines, main results first:

EC50 [1]	SMILES	other results
< 1000 nM	CN(C)c1ccc2c(ccc(/C=C/c3ccc(OCc4ccccc4)cc3)[n+]2C)c1 [Example 46]	
1000 nM	CN(C)c1ccc2c(ccc(/C=C/c3cn(S(=O)(=O)c4ccccc4)c4ccccc34)[n+]2C)c1 [Example 41]	
< 1000 nM	CCOC(=O)c1c(/C=C/c2ccc3cc(N(C)C)ccc3[n+]2C)c(C)n(Cc2cccs2)c1C [Example 55]	
1000 nM	Cc1cc(/C=C/c2ccc3cc(N4CCC(C)CC4)ccc3[n+]2C)c(C)n1-c1ccccc1 [Example 30]	
< 1000 nM	CCCCn1c(C)c(C=O)c(/C=C/c2ccc3cc(C)ccc3[n+]2C)c1C [Example 57]	
< 1000 nM	CN(C)c1ccc2c(ccc(/C=C/c3sccc3Oc3ccccc3)[n+]2C)c1 [Example 49]	
1000 nM	Cc1cc(/C=C/c2ccc3cc(N(C)C)ccc3[n+]2C)oc1C [Example 33]	
< 1000 nM	CN(C)c1ccc2c(ccc(/C=C/c3ccc(OCc4ccsc4C#N)cc3)[n+]2C)c1 [Example 43]	
< 1000 nM	CCOC(=O)c1c(/C=C/c2ccc3cc(N(C)C)ccc3[n+]2C)c(C)n(-c2ccccc2)c1C [Example 54]	
< 1000 nM	CCn1c2ccccc2c2cc(/C=C/c3ccc4cc(N(C)C)ccc4[n+]3C)ccc21 [Example 51]	
< 1000 nM	COc1cc(/C=C/c2ccc3cc(N(C)C)ccc3[n+]2C)ccc1OCc1ccccc1 [Example 45]	
< 1000 nM	CCCCn1c(C)c(C=O)c(/C=C/c2ccc3cc(Cl)ccc3[n+]2C)c1C [Example 58]	
1000 nM	CN(C)c1ccc2c(ccc(/C=C/c3ccc(-c4ccccc4)s3)[n+]2C)c1 [Example 32]	
1000 nM	CN(C)c1ccc2c(ccc(/C=C/c3ccc(OC(F)(F)F)cc3)[n+]2C)c1 [Example 44]	
1000 nM	CN(C)c1ccc2c(ccc(/C=C/c3ccc(-c4nn(C)cc4C(F)(F)F)s3)[n+]2C)c1 [Example 38]	
< 1000 nM	CCCCOc1ccc(/C=C/c2ccc3cc(N(C)C)ccc3[n+]2C)cc1.O=S(=O)([O-])C(F)(F)F [Example 36]	LLC tumor growth (Lewis lung cancer cells [3]): significantly suppressed tumor growth; LLC tumor growth as compared with 2DG alone or control (Lewis lung cancer cells [4]): significantly inhibited tumor growth; A549 tumor growth (A549 cancer cells [5]): significantly inhibited tumor growth
< 1000 nM	COCCn1c(C)c(C=O)c(/C=C/c2ccc3cc(N(C)C)ccc3[n+]2C)c1C [Example 25]	
< 1000 nM	Cc1cc(/C=C/c2ccc3cc(N(C)C)ccc3[n+]2C)cc(C)c1OCc1ccccc1.O=S(=O)([O-])C(F)(F)F [Example 47]	LLC tumor growth (Lewis lung cancer cells [3]): significantly suppressed tumor growth; A549 tumor size (A549 cancer cells [2]): significant reduction in tumor size
< 1000 nM	CCOC(=O)c1c(/C=C/c2ccc3cc(N(C)C)ccc3[n+]2C)c(C)n(C2CC2)c1C [Example 53]	
< 1000 nM	CN(C)c1ccc2c(ccc(/C=C/c3ccc(Oc4ccccc4)cc3)[n+]2C)c1 [Example 35]	
< 1000 nM	CN(C)c1ccc2c(ccc(/C=C/c3ccc(C#Cc4ccccc4)s3)[n+]2C)c1 [Example 50]	
< 1000 nM	Cc1c(C=O)c(/C=C/c2ccc3cc(N(C)C)ccc3[n+]2C)c(C)n1-c1ccccc1 [Example 28]	
